Tests used:
[1] = system: patients suffering from chronic obstructive pulmonary disease; test: Example 1: randomized double-blind clinical trial of orally inhaled mometasone furoate vs placebo, FEV1 after salbutamol; assay type: in vivo, human; conditions: for ΔFEV1: dry powder inhaler, COPD patients previously on inhaled corticosteroid, average change from study start, post-salbutamol
Procedure: A randomized, double-blind crossover clinical trial was conducted to compare the effects of orally inhaled mometasone furoate and a placebo, in patients suffering from chronic obstructive pulmonary disease. The drug was delivered from a multiple-dose dry powder inhaler charged with a mixture of mometasone furoate and lactose (having a component weight ratio of 1:5.8) in an agglomerated form. Placebo inhaler units contained only the lactose powder. The drug-containing inhalers delivered the following mean amounts of mometasone furoate particles per inhalation, as measured using an Anderson Cascade Impactor (from Thermo Anderson, Smyrna, Ga. U.S.A.) at an air flow rate through the inhaler of 60 L/minute:
Evaluable patients participating in the study numbered 578, all having been diagnosed with COPD of moderate severity, being at least 40 years of age, and also being maintained for at least three months prior to commencement of the study on daily inhalations of a corticosteroid drug (even though there was no regulatory agency-approved COPD therapy using an inhaled corticosteriod). […] The patients were enrolled at a total of 35 sites in 24 countries, and were prescribed two inhalations from the supplied inhaler device each evening for a twelve-month period, with evaluations by a physician after 1, 3, 6, 9, and 12 months of participation. A total of 294 of the patients were randomized to receive inhalers containing the drug, while 284 patients received placebo inhalers. All of the patients were permitted to further use inhaled salbutamol as needed.
Results of the study were as follows, where the ΔFEV1 value represents the average of differences between the patients' FEV1 scores at the beginning of the study and the FEV1 scores at the time of the subsequent measurement, with all of the FEV1 testing being performed after administration of inhaled salbutamol. For each time point, the number of patients remaining in the study is given.
From a statistical analysis of the data, it was determined that the mean change from baseline over the twelve-month period was an increase in ΔFEV1 of 4 mL for patients receiving the mometasone furoate, and a decrease of 36 mL for placebo patients.

[2] = system: patients suffering from chronic obstructive pulmonary disease; test: Example 2: randomized double-blind parallel-group clinical trial of orally inhaled mometasone furoate vs placebo, FEV1 after salbutamol; assay type: in vivo, human; conditions: for ΔFEV1: corticosteroid-naive COPD patients, post-salbutamol; for mean change from baseline in ΔFEV1 over the twelve-month period: statistical analysis, increase
Procedure: A randomized double-blind, parallel-group clinical trial was conducted to compare the effects of orally inhaled mometasone furoate and a placebo, in patients suffering from chronic obstructive pulmonary disease. The multiple dose dry powder inhaler and placebo inhaler described in the preceding example were used for this study. A total of 769 patients met the criteria for evaluability, from 95 sites in 11 countries. The patients had not previously been treated with corticosteroids, either inhaled or orally dosed, but otherwise met the criteria of the preceding example. In the study, patients were prescribed either two inhalations from the inhaler each evening, or one inhalation each morning and one inhalation each evening, with a twelve-month treatment duration. Results of the study were as follows, where the ΔFEV1 value represents the average of differences between the patients' FEV1 scores at the beginning of the study and the FEV1 scores at the time of the subsequent measurement, with all of the FEV1 testing being performed after administration of inhaled salbutamol. For each time point, the number of patients remaining in the study is given.

SMILES: C[C@@H]1C[C@H]2[C@@H]3CCC4=CC(=O)C=C[C@]4(C)[C@@]3(Cl)[C@@H](O)C[C@]2(C)[C@@]1(OC(=O)c1ccco1)C(=O)CCl [mometasone furoate, 9α,21-Dichloro-11β,17-dihydroxy-16α-methylpregna-1,4-diene-3,20-dione 17-(2-furoate)]
- ΔFEV1 ([1]; 1 month, two inhalations each evening): 5 mL
- ΔFEV1 ([1]; 3 months, two inhalations each evening): 9 mL
- ΔFEV1 ([1]; 6 months, two inhalations each evening): -2 mL
- ΔFEV1 ([1]; 9 months, two inhalations each evening): 22 mL
- ΔFEV1 ([1]; 12 months, two inhalations each evening): 7 mL
- difference between treatments (drug vs placebo) in mean ΔFEV1 change ([1]; longitudinal analysis of variance model, twelve-month period): statistically significant
- mean change from baseline in ΔFEV1 over the twelve-month period ([1]; statistical analysis (longitudinal analysis of variance), two inhalations each evening, increase): 4 mL
- pulmonary function over the trial period (FIG. 1) ([1]; twelve months, two inhalations each evening): generally maintained or slightly improved their pulmonary function
- ΔFEV1 ([2]; Once Daily (two inhalations each evening), 1 month): 66 mL
- ΔFEV1 ([2]; Once Daily (two inhalations each evening), 3 months): 57 mL
- ΔFEV1 ([2]; Once Daily (two inhalations each evening), 6 months): 44 mL
- ΔFEV1 ([2]; Once Daily (two inhalations each evening), 9 months): 37 mL
- ΔFEV1 ([2]; Once Daily (two inhalations each evening), 12 months): 38 mL
- ΔFEV1 ([2]; Twice Daily (one inhalation each morning and one each evening), 1 month): 72 mL
- ΔFEV1 ([2]; Twice Daily (one inhalation each morning and one each evening), 3 months): 79 mL
- ΔFEV1 ([2]; Twice Daily (one inhalation each morning and one each evening), 6 months): 36 mL
- ΔFEV1 ([2]; Twice Daily (one inhalation each morning and one each evening), 9 months): 58 mL
- ΔFEV1 ([2]; Twice Daily (one inhalation each morning and one each evening), 12 months): 31 mL
- mean change from baseline in ΔFEV1 over the twelve-month period ([2]; dosed once daily): 50 mL
- mean change from baseline in ΔFEV1 over the twelve-month period ([2]; dosed twice daily): 53 mL
- pulmonary function over the trial period (FIG. 2) ([2]; twelve months, once daily and twice daily): generally improved their pulmonary function
- comparison of both mometasone furoate treatments (once and twice daily) with placebo ([2]; twelve-month period, ΔFEV1): statistically significantly superior to the placebo treatment

From patent US20080107609A1, “PULMONARY DISEASE TREATMENT” (Schering Corporation, priority 2003, published 2008)
